We go through four compounds from PMC11788964, “Clinical Pharmacology and Approach to Dose Selection of Emestedastat, a Novel Tissue Cortisol Synthesis Inhibitor for the Treatment of Central Nervous System Disease” (Clinical Pharmacology in Drug Development, 2025).

One data set deals with AD population. Details: method as in PMID 24418055. Conditions: 12‐week Phase 2 trial in AD; cited from earlier work.
Another data set concerns brain 11β‐HSD1. Conditions: aged mice and murine Tg2576 model of AD; cited from earlier work.
Data set [1] has as its system mice with age‐associated cognitive impairment; murine Tg2576 model of AD. Conditions: aged mice and murine Tg2576 model of AD; cited from earlier work.
Data set [2] relates to healthy older men; patients with type 2 diabetes mellitus. The arrangement: method as in PMID 15071189. Conditions: cited from earlier work.
The subject of data set [3] is cognitively normal, older participants. The experiment in a line: XanaHES (ACW0003) computerized cognitive test battery (Cogstate). Conditions: 20 mg daily, over 12 weeks. The format is in vivo, human. How it is done: The next trial, XanaHES (ACW0003) was a double‐blind, placebo‐controlled, Phase 1b trial in cognitively normal, older participants (age range, 50‐75 years) at a dose of 20 mg daily for 12 weeks. The population of 42 participants comprised 30 receiving emestedastat and 12 receiving placebo. The objectives were to assess safety, PK, HPA PD, and cognition. The computerized cognitive test battery (CTB; Cogstate) assessed attention, working memory, and episodic memory.
(§1) In both XanaHES and XanaMIA‐DR, cognition was assessed using a computerized CTB (Cogstate). The CTB comprised tests indexing key domains of cognition including processing speed, attention, visual learning, working memory, psychomotor function, and executive function. In XanaHES, least squares mean differences between the emestedastat 20 mg treatment group and the placebo group were estimated and tested at a 2‐sided 0.05 significance level. No adjustments for α were made for multiple comparisons. In XanaMIA‐DR, standardized effect sizes, equivalent to a Z score, were calculated with a threshold for clinically meaningful effect set at 0.9, representing a 1‐sided 80% confidence interval (CI).
(§2) The individual tests from the Cogstate battery were combined into 2 composite scores indexing: • · “Attention Composite” of attention and working memory (Detection Test, Identification Test, One Back Test) • · “Memory Composite” of episodic memory and learning (One Card Learning Test, Continuous Paired Associate Learning Test, and Continuous Paired Associate Learning Test‐Delayed Recall).
(§3) To compute the Attention and Memory Composite scores, each of the component‐test scores were Z transformed, the directionality of scores was reversed so that higher scores indicate better performance, and the component Z scores were averaged.

The subject of data set [4] is healthy older participants. As to the kind of experiment: XanaMIA‐DR (ACW0005) computerized cognitive test battery (Cogstate). The format is in vivo, human. The protocol: XanaMIA‐DR (ACW0005) was a double‐blind placebo‐controlled Phase 1b trial in 107 healthy older participants (age range, 50‐80 years) at doses of 5 and 10 mg daily for 6 weeks. The principal objective of XanaMIA‐DR was to assess whether the improvements in cognition observed in XanaHES were also present at the lower doses of 5 and 10 mg daily.
as §1, §2, §3

Details of data set [5]: method as in PMID 28012176. Conditions: cited from earlier work.
Another data set has as its system 11β‐HSD1. The arrangement: method as in PMID 38250767. Conditions: 5 mg; cited from earlier work.
The next data set relates to patients with AD. Details: method as in PMID 34679364. Conditions: 10 mg daily 12 weeks, elevated plasma pTau181; cited from earlier work.
A short description of data set [6]: Population pharmacokinetic (PPK) analysis of MAD, XanADu and XanaHES trials. In kind it is in vivo, human. The protocol: PPK analysis was performed on data from 3 trials: the MAD trial in volunteers; the XanADu trial in patients with AD; and XanaHES in older, cognitively normal participants. In total, 138 participants (18 healthy volunteers, 90 patients with AD, and 30 healthy older participants) contributed a total of 1087 evaluable plasma concentration observations.
The analyses were performed using NONMEM Version 7.3.0 (ICON plc). PK parameter relationships were sought with the covariates body weight, age, sex, and healthy versus AD. The selected PPK model was a one‐compartment model with first‐order absorption and elimination. It was successfully fitted using Monte Carlo Importance Sampling Expectation Maximization estimation and included separate relative bioavailability terms for the Day 1 PK data from the XanADu and XanaHES trials. The M3 method was used to permit the inclusion of the below‐the‐limit quantification concentrations in the analysis. The model estimated between‐subject variation in all 4 parameters and used a full ω block to estimate the covariance between parameters. The model included a weight effect on the apparent volume of distribution.

The test system of the next data set is peripheral 11β‐HSD1. The arrangement: method as in PMID 28012176. Conditions: all doses in the MAD trial (10 to 35 mg twice daily); cited from earlier work.
The conditions of data set [7]: SAD and MAD trials of up to 35 mg twice daily; cited from earlier work.
Data set [8] is described as follows: Safety and tolerability in clinical trials. In kind it is in vivo, human. The text has this:
All trials were approved by a local ethics committee/institutional review board, and all participants gave written informed consent. Endocrinology data and a population PK (PPK) analysis are available from the following trials: • · A single‐ascending‐dose (SAD) trial in healthy volunteers (RD 656/25368)[25] • · A multiple‐ascending‐dose (MAD) trial in healthy volunteers, including a small subtrial measuring CSF concentrations (ACW0001)[25] • · A positron emission tomography (PET) trial in cognitively normal, older volunteers and patients with AD (ACW0004)[26] • · Two trials in cognitively normal, older volunteers examining safety and effects on cognition (Trials ACW0003, NCT03830762 and ACW0005; and NCT04983368) • · A PPK analysis from the healthy volunteer and patient trials • · HPA axis endocrinology data from the volunteer and patient trials • · A trial of efficacy and safety in patients with AD (ACW0002; NCT02727699)[27]
Initially, the SAD and MAD trials studied doses up to 35 mg twice daily and assessed PK and HPA PD.

On to `CC(C)(C(=O)NC1C2CC3CC1CC(C(N)=O)(C3)C2)N1CCN(c2ccc(C(F)(F)F)cn2)CC1` (stereo not drawn) [ABT‐384], for which the “therapeutic outcome in AD” value in the data set on AD population is recorded as “therapeutic failure”.

Regarding `O=C(c1csc(-c2cn[nH]c2)c1)N1CCC(F)(c2ccccc2Cl)CC1` [UE2316], the “inhibition of 11β‐HSD1 in the brain” value with brain 11β‐HSD1 is “approximately 30%”. For the same compound, in [1], the “amyloid‐β in the cortex” value is “reduction in amyloid‐β in the cortex” and the memory result was “improved memory”.

For the compound `CC1(C)[C@@H](OC(=O)CCC(=O)O)CC[C@]2(C)[C@H]3C(=O)C=C4[C@@H]5C[C@@](C)(C(=O)O)CC[C@]5(C)CC[C@@]4(C)[C@]3(C)CC[C@@H]12` [carbenoxolone], in data set [2] (10 healthy older (55‐75 years) men, 4 weeks), the “verbal fluency test (executive function)” value is on record as “improved”. For the same compound, the “verbal memory in the Rey Auditory Verbal Learning Test” value in data set [2] (12 patients with type 2 diabetes mellitus) is “improved verbal memory”.

Take `O=C(c1csc(-c2cn[nH]c2)c1)N1C2CCC1CC(O)(c1ncccn1)C2` (stereo not drawn) [emestedastat, (5‐(1H‐Pyrazol‐4‐yl)thiophen‐3‐yl)(3‐hydroxy‐3‐(pyrimidin‐2‐yl)‐8 azabicyclo[3.2.1]octan‐8‐yl) methanone]: in data set [3], the “One Card Learning Test, Continuous Paired Associate Learning Test and Delayed Recall, vs placebo” value is “no difference between groups”; the “least squares mean difference on the One Back Test compared to placebo” value was −0.06 U; the “least squares mean difference on the detection test compared to placebo” value was −0.04 U; the “least squares mean difference on the identification test compared to placebo” value was −0.03 U. For the same compound, in data set [3] (vs placebo), the “Cohen's d, One Back Test” value was 0.98; the “Cohen's d, detection test” value was 0.49; the “Cohen's d, identification test” value amounted to 0.65. Also, the “treatment effect in the tests making up the Memory Composite” value in data set [4] (5 and 10 mg daily, 6 weeks) is “no evidence of any treatment effect”. Further, the “improvement on the identification test (visual attention) compared to placebo” value in data set [4] (5‐mg treatment group, 6 weeks) is on record as −0.018 U. For the same compound, the “Cohen's d, identification test” value in data set [4] (5‐mg treatment group, vs placebo) stood at 0.32. Besides, the “CSF : free plasma ratio” value in [5] (4 participants, single time point) is recorded as 0.33. Besides, in data set [5] (SAD and MAD trials), the “urinary excretion of unchanged drug” value is reported as below 5%. Moreover, in the data set on 11β‐HSD1, the “occupancy in the cerebellum relative to cortex” value is “lower (by about half)”. Further, in the data set with patients with AD, the “Cohen's d, AD COMposite Scores” value is given as below 0.2; the “Cohen's d, ADAS‐Cog14” value is reported as below 0.2; the “Cohen's d, Clinical Dementia Ratio—Sum of Boxes compared to placebo” value is reported as 0.41; the “Cohen's d, Mini‐Mental State Examination” value was below 0.2. The “Cohen's d, Neuropsychological Test Battery‐Executive domain” value in the data set on patients with AD is 0.26. Further, the “linearity of PK” value in [6] (dose range 10‐70 mg) is “linear”. Moreover, in data set [6] (final PPK model), the “ALAG (absorption lag time), estimate” value was 0.900 h and the “ka (absorption rate), estimate” value was 1.74 h⁻¹. For the same compound, the “CL/F (apparent clearance), estimate” value in [6] (final PPK model, 138 participants) is 4.76 L/h. The “WT on V/F (covariate), estimate” value in data set [6] (final PPK model, weight effect on V/F) is given as 1.00. The Vd/F in data set [6] (human, plasma, oral, final PPK model, read-out: V/F (apparent volume of distribution), estimate) was 64.3 L. The half-life in data set [6] (human, plasma, oral, from kel = CL/V and t1/2 = ln(2)/Kel, read-out: mean elimination half‐life (95% CI)) came out at 9.36 h. Besides, the “inhibition of peripheral 11β‐HSD1 (suppression of urinary tetrahydrocortisol/tetrahydrocortisone ratios)” value in the data set on peripheral 11β‐HSD1 was “Near complete inhibition”. In [7], the maximum tolerated dose entry is recorded as “had not been established” and the tolerability result was “well tolerated”. Also, the “maximum tolerated dose in humans” value in data set [8] (all trials) is “has not been established”. Besides, the “serious adverse events attributed to drug” value in data set [8] (any trial) was “no serious adverse events”.
